# Data reported in patent US9067894B1, “Compound, composition, and method of activating GIRK potassium channel and use of same for treating conditions of interest” (Vanderbilt University, priority 2013, dated 2015).
# “Also recorded” adds a separate entry of the source.
# Legend:
# [1] = Microsomal clearance, murine liver microsomes; assay type: in vitro ADME, mouse
# Experimental: DMPK Methods. […] After a 5 min preincubation, the reaction was initiated by addition of NADPH (1 mM). At selected time intervals (0, 3, 7, 15, 25, and 45 min), 50 μL aliquots were taken and subsequently placed into a 96-well plate containing 150 μL of cold acetonitrile with internal standard (50 ng/mL carbamazepine). Plates were then centrifuged at 3000 rcf (4° C.) for 10 min, and the supernatant was transferred to a separate 96-well plate and diluted 1:1 with water for LC/MS/MS analysis. […] Liquid Chromatography/Mass Spectrometry Analysis. In vitro experiments. VU0456810 was analyzed on a Thermo Electron TSQ Quantum Ultra triple quad mass spectrometer (San Jose, Calif.) via electrospray ionization (ESI) with two Themo Electron Accella pumps (San Jose, Calif.), and a Leap Technologies CTC PAL autosampler (Carrboro, N.C.). Analytes were separated by gradient elution on a dual column system with two Thermo Hypersil Gold (2.1×30 mm, 1.9 μm) columns (San Jose, Calif.) at 40° C. […] The total run time was 1.3 min and the HPLC flow rate was 0.8 mL/min. […] Compound optimization, data collection and processing were performed using Thermo Electron's QuickQuan software (v2.3) and Xcalibur (v2.0.7 SP1).
# [2] = Ascending dose study in mice; assay type: in vivo, mouse; details: mice, 10, 30, 60 mg/kg intraperitoneal
# Experimental: To begin to assess […] pharmacodynamics properties, an ascending dose study (10, 30, 60 mg/kg, intraperitoneal injection) was performed in mice.
# [3] = Maximal electroshock (MES) model of epilepsy; assay type: in vivo, mouse; details: mice, i.p.; VU0456810 60 mg/kg, sodium valproate 150 mg/kg; vs vehicle
# Experimental: MES stimulation was applied, 30 minutes after injection, through transauricular (ear-clip) electrodes from an electroshock apparatus, HSE Shock Stimulator Type 221, (Harvard Apparatus, Holliston, Mass.) using the following parameters: 100-mA fixed current, a 50-60-Hz pulse frequency, a 0.6-ms pulse width and a 0.3-s stimulus duration. Animals were restrained by hand when applying the electrodes and released at the moment of stimulation to permit observation of the seizure throughout its entire course. Upon completion of the electrical stimulus, the amount of time until death was recorded. […] In this modified MES test, the electrical stimulus that was applied was sufficient to induce seizures and death from maximal seizure in 100% of the control mice.
# In all cases, experiments were conducted in a blind manner with respect to the experimenters. Data were evaluated in Excel using one-tailed, unpaired Student's t-test, assuming populations with unequal variance.
# Adenosine A1 = biological target: T1, Adenosine A1 (Homo sapiens, UniProt P30542); experiment: Radioligand displacement (Ricerca); assay type: binding
# T1 construct: Ricerca (contract assay)
# Adrenergic α1A = biological target: T2, Adrenergic α1A (Rattus norvegicus, UniProt P43140); experiment: Radioligand displacement (Ricerca); assay type: binding
# T2 construct: Ricerca (contract assay)
# Adrenergic α1B = biological target: T3, Adrenergic α1B (Rattus norvegicus, UniProt P15823); experiment: Radioligand displacement (Ricerca); assay type: binding
# T3 construct: Ricerca (contract assay)
# [4] = tested on: L-Type Ca channel (dihydropyridine); experiment: Radioligand displacement (Ricerca); assay type: binding, rat; details: 10 μM
# Dopamine D2s = biological target: T4, Dopamine D2s (Homo sapiens, UniProt P14416); experiment: Radioligand displacement (Ricerca); assay type: binding
# T4 construct: Ricerca
# Dopamine D3 = biological target: T5, Dopamine D3 (Homo sapiens, UniProt P35462); experiment: Radioligand displacement (Ricerca); assay type: binding
# T5 construct: Ricerca
# Dopamine D4.2 = biological target: T6, Dopamine D4.2 (Homo sapiens, UniProt P21917, DEL265-296); experiment: Radioligand displacement (Ricerca); assay type: binding
# T6 construct: Ricerca
# Endothelin ETA = biological target: T7, Endothelin ETA (Homo sapiens, UniProt P25101); experiment: Radioligand displacement (Ricerca); assay type: binding
# T7 construct: Ricerca
# GABAB1A = biological target: T8, GABAB1A (Homo sapiens, UniProt Q9UBS5); experiment: Radioligand displacement (Ricerca); assay type: binding
# T8 construct: Ricerca
# Interleukin IL-1 = biological target: T9, Interleukin IL-1 (Mus musculus, UniProt P13504); experiment: Radioligand displacement (Ricerca); assay type: binding
# T9 construct: Ricerca (contract laboratory that ran the panel)
# Leukotriene = biological target: T10, Leukotriene (Homo sapiens, UniProt Q9Y271); experiment: Radioligand displacement (Ricerca); assay type: binding
# T10 construct: Ricerca (contract laboratory that ran the panel)
# Purinergic P2X = experiment: Radioligand displacement (Ricerca); assay type: binding, rabbit; details: 10 μM
# Tachykinin NK1 = biological target: T11, Tachykinin NK1 (Homo sapiens, UniProt P25103); experiment: Radioligand displacement (Ricerca); assay type: binding
# T11 construct: Ricerca (contract panel)
# Thyroid hormone = experiment: Radioligand displacement (Ricerca); assay type: binding, human; details: 10 μM
# T8 sequence (Q9UBS5 15-961 limits assumed): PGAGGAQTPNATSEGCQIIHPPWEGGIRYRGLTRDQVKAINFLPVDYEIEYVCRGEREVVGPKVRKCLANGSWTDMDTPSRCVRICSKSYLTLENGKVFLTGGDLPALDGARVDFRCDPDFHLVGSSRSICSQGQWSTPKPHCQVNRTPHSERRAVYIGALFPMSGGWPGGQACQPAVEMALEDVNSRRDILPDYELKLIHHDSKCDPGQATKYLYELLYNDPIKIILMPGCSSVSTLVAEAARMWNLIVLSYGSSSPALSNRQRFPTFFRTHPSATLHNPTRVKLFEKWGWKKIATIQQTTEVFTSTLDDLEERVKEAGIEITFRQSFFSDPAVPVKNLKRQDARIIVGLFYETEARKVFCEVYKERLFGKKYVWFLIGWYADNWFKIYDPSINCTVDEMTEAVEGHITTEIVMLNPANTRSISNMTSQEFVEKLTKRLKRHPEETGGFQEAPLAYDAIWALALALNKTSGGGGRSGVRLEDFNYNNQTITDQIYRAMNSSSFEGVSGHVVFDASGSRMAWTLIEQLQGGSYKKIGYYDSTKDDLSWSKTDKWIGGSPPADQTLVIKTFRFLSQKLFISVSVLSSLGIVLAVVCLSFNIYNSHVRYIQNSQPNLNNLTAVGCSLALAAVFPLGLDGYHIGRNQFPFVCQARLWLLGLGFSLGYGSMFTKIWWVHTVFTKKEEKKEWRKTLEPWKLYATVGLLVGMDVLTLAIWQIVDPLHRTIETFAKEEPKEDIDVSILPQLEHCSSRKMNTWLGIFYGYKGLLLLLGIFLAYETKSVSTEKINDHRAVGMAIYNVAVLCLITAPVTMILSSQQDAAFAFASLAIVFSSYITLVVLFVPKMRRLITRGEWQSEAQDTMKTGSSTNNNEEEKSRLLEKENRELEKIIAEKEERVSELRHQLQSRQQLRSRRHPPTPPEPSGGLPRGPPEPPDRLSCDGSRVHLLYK
# T3 sequence (P15823 whole entry): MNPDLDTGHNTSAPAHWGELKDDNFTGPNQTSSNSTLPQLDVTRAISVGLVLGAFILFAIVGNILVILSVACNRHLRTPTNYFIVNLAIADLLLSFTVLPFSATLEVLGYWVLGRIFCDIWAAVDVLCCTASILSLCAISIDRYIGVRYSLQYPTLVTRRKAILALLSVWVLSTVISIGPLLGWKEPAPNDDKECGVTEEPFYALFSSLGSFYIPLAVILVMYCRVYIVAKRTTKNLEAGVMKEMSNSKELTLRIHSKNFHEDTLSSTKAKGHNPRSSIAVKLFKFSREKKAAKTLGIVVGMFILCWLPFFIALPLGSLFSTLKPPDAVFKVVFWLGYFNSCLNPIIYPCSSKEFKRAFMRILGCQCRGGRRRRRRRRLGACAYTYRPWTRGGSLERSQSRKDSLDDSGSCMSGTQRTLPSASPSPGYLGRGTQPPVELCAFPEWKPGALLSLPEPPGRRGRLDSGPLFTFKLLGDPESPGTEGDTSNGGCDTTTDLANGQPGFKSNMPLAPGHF
# T2 sequence (P43140 whole entry): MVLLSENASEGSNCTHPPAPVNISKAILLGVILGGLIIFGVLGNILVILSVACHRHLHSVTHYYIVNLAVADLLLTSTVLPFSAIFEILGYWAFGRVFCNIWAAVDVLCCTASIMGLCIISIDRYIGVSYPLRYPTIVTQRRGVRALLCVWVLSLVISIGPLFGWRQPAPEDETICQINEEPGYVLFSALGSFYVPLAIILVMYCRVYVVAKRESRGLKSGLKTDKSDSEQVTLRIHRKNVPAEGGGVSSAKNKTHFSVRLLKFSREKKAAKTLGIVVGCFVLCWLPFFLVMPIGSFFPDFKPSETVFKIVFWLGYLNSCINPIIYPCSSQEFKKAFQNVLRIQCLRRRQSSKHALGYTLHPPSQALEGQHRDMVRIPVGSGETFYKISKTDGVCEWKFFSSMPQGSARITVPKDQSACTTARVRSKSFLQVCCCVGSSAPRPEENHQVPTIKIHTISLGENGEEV
# T7 sequence (P25101 21-427): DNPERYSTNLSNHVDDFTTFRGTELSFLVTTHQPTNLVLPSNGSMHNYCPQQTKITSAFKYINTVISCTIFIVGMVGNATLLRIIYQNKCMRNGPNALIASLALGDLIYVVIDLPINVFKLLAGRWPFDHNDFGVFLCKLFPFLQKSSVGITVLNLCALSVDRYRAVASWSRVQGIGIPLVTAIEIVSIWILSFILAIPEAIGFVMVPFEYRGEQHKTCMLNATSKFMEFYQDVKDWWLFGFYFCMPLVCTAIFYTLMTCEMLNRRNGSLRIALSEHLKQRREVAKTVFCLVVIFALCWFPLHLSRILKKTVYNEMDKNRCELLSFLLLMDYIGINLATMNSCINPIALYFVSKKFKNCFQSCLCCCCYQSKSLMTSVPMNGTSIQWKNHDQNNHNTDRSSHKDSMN
# T10 sequence (Q9Y271 whole entry): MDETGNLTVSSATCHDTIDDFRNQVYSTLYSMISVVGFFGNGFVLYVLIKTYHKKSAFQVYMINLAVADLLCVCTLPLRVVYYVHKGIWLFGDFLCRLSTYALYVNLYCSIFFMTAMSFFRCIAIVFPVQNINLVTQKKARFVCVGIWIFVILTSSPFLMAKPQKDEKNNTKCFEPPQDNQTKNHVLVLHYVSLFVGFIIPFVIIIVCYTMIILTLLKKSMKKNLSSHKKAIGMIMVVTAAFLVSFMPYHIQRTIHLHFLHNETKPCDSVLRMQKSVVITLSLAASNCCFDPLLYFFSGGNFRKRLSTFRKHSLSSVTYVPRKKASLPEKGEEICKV
# T11 sequence (P25103 whole entry): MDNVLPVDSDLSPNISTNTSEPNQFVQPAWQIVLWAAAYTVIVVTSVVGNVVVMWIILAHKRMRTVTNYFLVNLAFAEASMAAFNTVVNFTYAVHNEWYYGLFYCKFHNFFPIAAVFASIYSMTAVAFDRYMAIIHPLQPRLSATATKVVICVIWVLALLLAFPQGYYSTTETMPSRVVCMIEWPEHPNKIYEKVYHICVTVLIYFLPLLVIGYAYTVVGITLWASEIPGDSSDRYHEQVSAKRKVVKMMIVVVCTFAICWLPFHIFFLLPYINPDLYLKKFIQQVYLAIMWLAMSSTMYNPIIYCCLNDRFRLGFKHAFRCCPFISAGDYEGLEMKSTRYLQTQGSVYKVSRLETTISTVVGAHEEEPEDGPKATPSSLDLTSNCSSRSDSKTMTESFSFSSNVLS
# T6 sequence (P21917 with tags, fused parts or gaps DEL265-296): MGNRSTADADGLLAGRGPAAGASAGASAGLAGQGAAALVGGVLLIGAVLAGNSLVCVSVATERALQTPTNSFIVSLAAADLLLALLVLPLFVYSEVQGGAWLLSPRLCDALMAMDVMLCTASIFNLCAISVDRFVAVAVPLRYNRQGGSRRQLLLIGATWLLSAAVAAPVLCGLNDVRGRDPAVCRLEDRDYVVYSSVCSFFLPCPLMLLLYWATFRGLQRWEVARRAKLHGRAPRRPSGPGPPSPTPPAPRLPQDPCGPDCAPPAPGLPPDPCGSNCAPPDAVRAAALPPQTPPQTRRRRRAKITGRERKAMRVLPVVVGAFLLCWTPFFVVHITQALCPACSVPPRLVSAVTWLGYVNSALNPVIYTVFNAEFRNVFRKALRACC
# T5 sequence (P35462 whole entry): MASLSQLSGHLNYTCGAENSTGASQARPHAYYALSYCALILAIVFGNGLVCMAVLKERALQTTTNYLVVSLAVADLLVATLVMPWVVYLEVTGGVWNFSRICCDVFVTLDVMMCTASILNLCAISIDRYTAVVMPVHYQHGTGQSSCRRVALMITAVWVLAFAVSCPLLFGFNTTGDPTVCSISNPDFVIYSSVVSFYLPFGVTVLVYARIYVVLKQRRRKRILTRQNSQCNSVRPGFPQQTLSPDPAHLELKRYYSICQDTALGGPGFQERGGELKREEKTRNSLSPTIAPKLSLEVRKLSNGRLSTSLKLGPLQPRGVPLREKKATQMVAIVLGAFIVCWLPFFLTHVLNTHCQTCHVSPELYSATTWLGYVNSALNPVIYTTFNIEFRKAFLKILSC
# T4 sequence (P14416 1-414 isoform P14416-2): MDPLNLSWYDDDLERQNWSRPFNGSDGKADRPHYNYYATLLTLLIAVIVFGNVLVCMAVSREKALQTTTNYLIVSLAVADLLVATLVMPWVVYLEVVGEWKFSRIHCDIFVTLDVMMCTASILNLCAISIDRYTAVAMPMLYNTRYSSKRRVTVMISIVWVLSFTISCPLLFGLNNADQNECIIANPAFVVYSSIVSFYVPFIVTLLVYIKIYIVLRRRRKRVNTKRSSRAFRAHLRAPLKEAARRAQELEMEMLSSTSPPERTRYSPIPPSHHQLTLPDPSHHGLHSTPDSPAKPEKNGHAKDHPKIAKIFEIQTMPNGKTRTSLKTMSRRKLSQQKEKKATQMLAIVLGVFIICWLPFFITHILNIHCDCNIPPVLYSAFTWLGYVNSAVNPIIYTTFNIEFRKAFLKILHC
# T9 sequence (P13504 20-576): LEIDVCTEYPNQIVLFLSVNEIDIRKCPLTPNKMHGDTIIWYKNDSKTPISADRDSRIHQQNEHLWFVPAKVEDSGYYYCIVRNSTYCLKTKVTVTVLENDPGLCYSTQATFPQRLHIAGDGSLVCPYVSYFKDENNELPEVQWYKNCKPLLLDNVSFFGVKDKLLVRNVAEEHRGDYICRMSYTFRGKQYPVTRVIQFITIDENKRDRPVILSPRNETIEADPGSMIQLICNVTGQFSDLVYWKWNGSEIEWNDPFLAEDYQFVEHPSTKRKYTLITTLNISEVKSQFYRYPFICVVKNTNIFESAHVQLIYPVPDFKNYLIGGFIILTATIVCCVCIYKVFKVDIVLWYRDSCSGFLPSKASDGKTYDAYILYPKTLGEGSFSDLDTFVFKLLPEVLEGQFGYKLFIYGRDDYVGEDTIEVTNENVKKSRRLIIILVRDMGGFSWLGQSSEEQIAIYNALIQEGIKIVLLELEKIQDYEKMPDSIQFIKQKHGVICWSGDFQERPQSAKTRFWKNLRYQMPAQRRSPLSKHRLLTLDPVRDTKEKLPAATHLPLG
smiles,measurement,setting,value
"Cc1cc(NC(=O)Nc2ccc(F)c(F)c2)n(-c2ccccc2)n1 [VU0456810, 1-(3,4-difluorophenyl)-3-(3-methyl-1-phenyl-1H-pyrazol-5-yl)urea]",rClHEP,[1],88 mL/min/kg
same,CLhep predicted at 1 μM,"[1]; mouse, pH 7.4",88 mL/min/kg
same,appearance of animals,[2],appeared normal and not under obvious distress
same,latency of seizure onset,[3],robust increase; also recorded: highly significant delays in seizure onset
same,inhibition at 10 µM,Adenosine A1,6%
same,inhibition at 10 µM,Adrenergic α1A,4%
same,inhibition at 10 µM,Adrenergic α1B,1%
same,% Inhibition,[4],3%
same,inhibition at 10 µM,Dopamine D2s,16%
same,inhibition at 10 µM,Dopamine D3,2%
same,inhibition at 10 µM,Dopamine D4.2,4%
same,inhibition at 10 µM,Endothelin ETA,1%
same,inhibition at 10 µM,GABAB1A,11%
same,inhibition at 10 µM,Interleukin IL-1,2%
same,inhibition at 10 µM,Leukotriene,4%
same,% Inhibition,Purinergic P2X,16%
same,inhibition at 10 µM,Tachykinin NK1,3%
same,% Inhibition,Thyroid hormone,8%
